Laboratory results taken from ChEMBL document CHEMBL3045939, “Synthesis and evaluation of fused pyrimidine derivatives as anti-inflammatory, antiproliferative and antimicrobial agents” (Med Chem Res, 2012).
Values after ≈ are worked out from the molar mass of the structure shown.

Experiments:
[1] = system: Aspergillus flavus; test: Antimicrobial activity against Aspergillus flavus ATCC 15517 after 48 hr by broth micro dilution assay; assay type: functional; conditions: ATCC 15517, 48 h
[2] = system: Candida albicans; test: Antimicrobial activity against Candida albicans ATCC 24433 after 48 hr by broth micro dilution assay; assay type: functional; conditions: ATCC 24433, 48 h
[3] = system: Escherichia coli; test: Antimicrobial activity against Escherichia coli ATCC 25922 after 24 hr by broth micro dilution assay; assay type: functional; conditions: ATCC 25922, 24 h
[4] = system: Staphylococcus aureus; test: Antimicrobial activity against Staphylococcus aureus ATCC 25923 after 24 hr by broth micro dilution assay; assay type: functional; conditions: ATCC 25923, 24 h
[5] = system: Pseudomonas aeruginosa; test: Antimicrobial activity against Pseudomonas aeruginosa ATCC 27853 after 24 hr by broth micro dilution assay; assay type: functional; conditions: ATCC 27853, 24 h
[6] = system: HEp-2; test: Cytotoxicity against Homo sapiens (human) Hep2 cells after 24 hr by MTT assay; assay type: functional, cell-based; conditions: HEp-2, 24 h
[7] = system: HeLa; test: Cytotoxicity against Homo sapiens (human) HeLa cells after 24 hr by MTT assay; assay type: functional, cell-based
[8] = Cytotoxicity against Homo sapiens (human) Chang cells after 24 hr by MTT assay; assay type: functional, cell-based
[9] = system: Rattus norvegicus; test: Anti-inflammatory activity in Rattus norvegicus Wistar albino (rat) assessed as carrageenan-induced paw volume at 100 mg/kg, po administered 1 hr prior to carrageenan-challenge measured at 5 hr (reference value: 1.24 +/- 0.0754 mm3); assay type: functional
[10] = system: Rattus norvegicus; test: Anti-inflammatory activity in Rattus norvegicus Wistar albino (rat) assessed as carrageenan-induced paw volume at 100 mg/kg, po administered 1 hr prior to carrageenan-challenge measured at 4 hr (reference value: 1.2825 +/- 0.0862 mm3); assay type: functional
[11] = system: Rattus norvegicus; test: Anti-inflammatory activity in Rattus norvegicus Wistar albino (rat) assessed as carrageenan-induced paw volume at 100 mg/kg, po administered 1 hr prior to carrageenan-challenge measured at 3 hr (reference value: 1.225 +/- 0.0484 mm3); assay type: functional
[12] = system: Rattus norvegicus; test: Anti-inflammatory activity in Rattus norvegicus Wistar albino (rat) assessed as carrageenan-induced paw volume at 100 mg/kg, po administered 1 hr prior to carrageenan-challenge measured at 2 hr (reference value: 1.4175 +/- 0.1931 mm3); assay type: functional
[13] = system: Rattus norvegicus; test: Anti-inflammatory activity in Rattus norvegicus Wistar albino (rat) assessed as carrageenan-induced paw volume at 100 mg/kg, po administered 1 hr prior to carrageenan-challenge measured at 1 hr (reference value: 1.2075 +/- 0.0405 mm3); assay type: functional
[14] = system: Rattus norvegicus; test: Anti-inflammatory activity in Rattus norvegicus Wistar albino (rat) assessed as inhibition of carrageenan-induced paw edema at 100 mg/kg, po administered 1 hr prior to carrageenan-challenge measured at 2 hr relative to control; assay type: functional

MIC [1] [µg/mL]	MIC [2] [µg/mL]	MIC [3] [µg/mL]	MIC [4] [µg/mL]	MIC [5] [µg/mL]	SMILES	IC50 [6] [µg/mL]	IC50 [7] [µg/mL]	IC50 [8] [µg/mL]	Activity [9] [mm3]	Activity [10] [mm3]	Activity [11] [mm3]	Activity [12] [mm3]	Activity [13] [mm3]	inhibition in vivo at 100 mg/kg [14] [%]
25 (≈ 68.5 µM)	12.5 (≈ 34.3 µM)	1.56 (≈ 4.28 µM)	0.78 (≈ 2.14 µM)	3.12 (≈ 8.55 µM)	O=c1c2cc(Cl)ccc2nc(-c2ccccc2)n1Cc1ccc(F)cc1	10.9 (≈ 29.8 µM)	41.5 (≈ 114 µM)	17.9 (≈ 49.2 µM)	1.2875	1.24	1.135	1.285	1.1525	
					CC(C)Cc1ccc(C(C)C(=O)O)cc1 (stereo not given) [IBUPROFEN]									65.3
100 (≈ 305 µM)	50 (≈ 153 µM)	3.12 (≈ 9.52 µM)	1.56 (≈ 4.76 µM)	6.25 (≈ 19.1 µM)	CN(C)CCn1c(-c2ccccc2)nc2ccc(Cl)cc2c1=O	20.5 (≈ 62.5 µM)	> 200	33.4 (≈ 102 µM)	1.215	1.165	1.1875		1.1825	88.4

SMILES	MIC [1] [µg/mL]	MIC [2] [µg/mL]	MIC [3] [µg/mL]	MIC [4] [µg/mL]	MIC [5] [µg/mL]	IC50 [6] [µg/mL]	IC50 [7] [µg/mL]	IC50 [8] [µg/mL]	Activity [9] [mm3]	Activity [10] [mm3]	Activity [11] [mm3]	Activity [12] [mm3]	Activity [13] [mm3]	inhibition in vivo at 100 mg/kg [14] [%]
O=c1c2cc(Cl)ccc2nc(-c2ccccc2)n1-c1ccc(Cl)cc1	> 100	> 100	12.5 (≈ 34 µM)	3.12 (≈ 8.5 µM)	12.5 (≈ 34 µM)	< 25	< 25	6.25 (≈ 17 µM)	1.1825	1.1425	1.23	1.11	1.135	
